Structures are written as SMILES. The source made the active and inactive calls.

Assay [1] has as its target T1, Runt-related transcription factor 1/Core-binding factor subunit beta (Homo sapiens, UniProt Q01196+Q13951). Description: Confirmation of compounds inhibiting the binding between the RUNX1 Runt domain and CBFb-SMMHC via a fluorescence resonance energy transfer (FRET) assay. [Related pubchem assays (depositor defined):AID1434, AID1438, AID1496, AID1550, AID1645]. It counts as protein assay.

For assay [2], the target named is T1, Runt-related transcription factor 1/Core-binding factor subunit beta. Briefly: inhibitors of RUNX1 Runt–CBFb-SMMHC binding, primary screen, biochemical, FRET, Cerulean-Runt, Venus-CBFb-SMMHC, uHTS (AID 1434).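 Further: partner is the CBFb-SMMHC leukemia fusion protein rather than wild-type CBFb.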 It counts as protein assay.
For assay [3] the target is unchanged. Description: inhibitors of RUNX1 Runt–CBFb-SMMHC binding, biochemical, TR-FRET (AID 1438). It counts as protein assay. A general note: Time-resolved FRET reads energy transfer from a long-lived donor to a nearby acceptor.
For assay [4], the target named is T2, Mannose-6-phosphate isomerase (Homo sapiens, UniProt P34949).
T2 sequence (P34949 whole entry): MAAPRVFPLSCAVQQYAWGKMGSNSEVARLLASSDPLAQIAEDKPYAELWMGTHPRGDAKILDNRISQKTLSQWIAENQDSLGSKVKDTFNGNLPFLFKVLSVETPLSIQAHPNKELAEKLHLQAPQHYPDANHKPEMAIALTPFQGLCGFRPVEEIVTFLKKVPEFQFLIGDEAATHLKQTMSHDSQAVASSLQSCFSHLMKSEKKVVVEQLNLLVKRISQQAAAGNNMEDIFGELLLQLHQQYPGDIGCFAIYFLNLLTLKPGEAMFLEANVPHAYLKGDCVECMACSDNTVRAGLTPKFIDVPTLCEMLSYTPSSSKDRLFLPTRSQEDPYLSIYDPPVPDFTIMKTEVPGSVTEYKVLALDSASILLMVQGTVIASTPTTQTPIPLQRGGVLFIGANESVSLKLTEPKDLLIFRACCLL
Description: inhibitors of human PMI, primary screen, biochemical, fluorescence intensity, coupled assay (AID 1209).

The target of assay [5] is T2, Mannose-6-phosphate isomerase. Description: PMI enzyme inhibitors, confirmation, biochemical, fluorescence intensity (AID 1535).
Assay [6] addresses T3, Phosphomannomutase 2 (Homo sapiens, UniProt O15305).
T3 sequence (O15305 whole entry): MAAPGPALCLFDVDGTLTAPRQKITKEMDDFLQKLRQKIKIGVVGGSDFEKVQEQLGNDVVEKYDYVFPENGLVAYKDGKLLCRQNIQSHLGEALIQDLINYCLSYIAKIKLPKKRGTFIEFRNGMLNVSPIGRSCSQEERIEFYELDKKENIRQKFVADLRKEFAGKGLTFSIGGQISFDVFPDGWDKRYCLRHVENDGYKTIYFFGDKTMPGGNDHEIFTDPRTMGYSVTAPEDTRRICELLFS
Description: Counter screen SAR assay for PMM2 inhibitors via a fluorescence intensity assay. [Related pubchem assays (depositor defined):AID1545, AID1574].

In assay [7] the target is T4, Tyrosine-protein phosphatase non-receptor type 7 (Homo sapiens, UniProt P35236).
T4 sequence (P35236 whole entry): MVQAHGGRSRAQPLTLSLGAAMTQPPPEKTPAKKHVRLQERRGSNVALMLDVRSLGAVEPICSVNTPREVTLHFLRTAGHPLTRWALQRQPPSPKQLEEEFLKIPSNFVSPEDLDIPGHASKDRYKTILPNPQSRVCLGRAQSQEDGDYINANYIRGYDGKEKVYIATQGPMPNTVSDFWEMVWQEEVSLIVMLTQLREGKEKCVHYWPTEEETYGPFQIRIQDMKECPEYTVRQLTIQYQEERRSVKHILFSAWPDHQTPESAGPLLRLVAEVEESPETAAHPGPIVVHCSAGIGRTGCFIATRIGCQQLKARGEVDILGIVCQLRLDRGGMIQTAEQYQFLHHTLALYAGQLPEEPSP
Briefly: SAR analysis of chemical inhibitors of HePTP using a Fluorescent assay - Set 2. [Related pubchem assays (depositor defined):AID1059, AID1077, AID1661, AID2085, AID521]. Type of assay: functional.

Assay [8] concerns the target Dual specificity protein phosphatase 3 (Homo sapiens, UniProt P51452). Briefly: SAR VHR1 Fluorescent Assay for In Vitro dose response studies Set 2. [Related pubchem assays (depositor defined):AID1654, AID1661, AID1878]. Type of assay: functional.
The nature of assay [9]: microbe, parasite or virus in culture. It counts as functional. As to conditions: Mycobacterium tuberculosis.
Assay [10] in a line: Vero E6 cell cytotoxicity, dose response, cytotoxicity control for non-replicating M. tuberculosis project, secondary assay (AID 492998). Type of assay: functional, VeroE6. As to conditions: Vero C1008.
Assay [11] can be described thus: cells. Type of assay: functional.
The target in assay [12] is T5, RNA-binding protein pos-1 (Caenorhabditis elegans, UniProt G5EF15).
T5 sequence (G5EF15 whole entry): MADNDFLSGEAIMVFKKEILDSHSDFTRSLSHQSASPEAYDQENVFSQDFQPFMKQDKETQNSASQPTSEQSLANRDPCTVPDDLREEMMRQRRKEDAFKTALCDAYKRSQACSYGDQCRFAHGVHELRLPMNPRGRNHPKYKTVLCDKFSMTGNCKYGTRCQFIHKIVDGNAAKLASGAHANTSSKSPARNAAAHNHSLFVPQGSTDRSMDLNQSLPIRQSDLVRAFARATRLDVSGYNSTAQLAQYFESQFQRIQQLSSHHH
Description: inhibitors of POS-1/mex-3 RNA binding, dose response, biochemical, fluorescence polarization (AID 1964).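 Further: purified POS-1 fused to maltose binding protein made in E. coli; potency of compounds blocking POS-1 binding to fluorescent RNA.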 In general terms: Polarisation of emitted light reports the rotation of a fluorescent probe.

Assay [13] has as its target T6, Zinc finger protein mex-5 (Caenorhabditis elegans, UniProt Q9XUB2).
T6 sequence (Q9XUB2 whole entry): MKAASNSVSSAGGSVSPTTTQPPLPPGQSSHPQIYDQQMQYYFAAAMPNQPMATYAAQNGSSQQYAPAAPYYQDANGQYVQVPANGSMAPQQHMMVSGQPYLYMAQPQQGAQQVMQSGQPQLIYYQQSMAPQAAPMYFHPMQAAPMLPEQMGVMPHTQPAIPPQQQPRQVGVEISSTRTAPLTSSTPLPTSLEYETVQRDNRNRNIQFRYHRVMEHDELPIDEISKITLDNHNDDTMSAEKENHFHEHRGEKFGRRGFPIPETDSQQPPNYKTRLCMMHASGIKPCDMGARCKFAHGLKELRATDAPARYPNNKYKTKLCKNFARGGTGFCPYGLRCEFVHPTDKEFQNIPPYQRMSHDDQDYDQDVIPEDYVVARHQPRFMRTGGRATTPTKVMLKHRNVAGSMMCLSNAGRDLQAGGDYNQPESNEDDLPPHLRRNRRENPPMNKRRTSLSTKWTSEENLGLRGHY
Description: MEX-5/TCR-2 RNA interaction inhibitors, dose response, biochemical, C. elegans, fluorescence polarization (AID 1960).

Assay [14] concerns the target Ion channel NompC (Danio rerio, UniProt Q7T1G6). Briefly: Dose response cell-based high-throughput screening assay for agonists of the transient receptor potential channel N1 (TRPN1). [Related pubchem assays (depositor defined):AID1424, AID1448]. Type of assay: functional.
In assay [15] the target is Beta-lactamase (Pseudomonas aeruginosa, UniProt Q79MP6).
The target of assay [16] is Mucolipin-3 (Homo sapiens, UniProt Q8TDD5). Briefly: Fluorescence counterscreen assay for […] agonists: dose response cell-based high-throughput screening assay to identify agonists of the transient receptor potential channel ML3 (TRPML3). [Related pubchem assays: 1424, 1448 ]. Type of assay: functional.
Chain of Mucolipin-3 (Q8TDD5 whole entry): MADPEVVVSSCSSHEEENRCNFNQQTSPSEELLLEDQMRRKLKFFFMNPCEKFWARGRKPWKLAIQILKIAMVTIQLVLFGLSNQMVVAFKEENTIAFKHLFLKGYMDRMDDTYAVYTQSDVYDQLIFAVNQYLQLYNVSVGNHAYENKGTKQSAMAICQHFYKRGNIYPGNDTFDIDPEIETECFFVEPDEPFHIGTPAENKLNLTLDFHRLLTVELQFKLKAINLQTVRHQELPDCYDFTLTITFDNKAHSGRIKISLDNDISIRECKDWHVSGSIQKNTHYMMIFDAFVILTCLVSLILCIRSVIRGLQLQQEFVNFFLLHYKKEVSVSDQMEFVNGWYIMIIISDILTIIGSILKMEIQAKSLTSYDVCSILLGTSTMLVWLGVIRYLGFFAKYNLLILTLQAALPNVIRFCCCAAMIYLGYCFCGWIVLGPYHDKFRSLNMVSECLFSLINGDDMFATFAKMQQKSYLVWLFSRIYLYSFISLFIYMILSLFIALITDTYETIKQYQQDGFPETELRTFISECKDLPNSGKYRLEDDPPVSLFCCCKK
Assay [17] deals with Beta-lactamase (Salmonella choleraesuis (strain SC-B67), UniProt Q5J463).
Chain of Beta-lactamase (Salmonella choleraesuis (strain SC-B67), UniProt Q5J463) (Q5J463 whole entry): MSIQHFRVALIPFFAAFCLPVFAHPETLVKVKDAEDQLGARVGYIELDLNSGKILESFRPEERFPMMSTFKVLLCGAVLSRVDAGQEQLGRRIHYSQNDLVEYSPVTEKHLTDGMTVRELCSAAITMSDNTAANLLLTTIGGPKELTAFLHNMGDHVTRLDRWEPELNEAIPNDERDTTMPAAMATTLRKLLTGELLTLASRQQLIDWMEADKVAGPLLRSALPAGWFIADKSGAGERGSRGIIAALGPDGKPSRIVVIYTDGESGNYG
The target of assay [18] is Peroxisome proliferator-activated receptor gamma (Homo sapiens, UniProt P37231). Description: PPARg partial agonists, dose response, cell-based, luminescence, assay provider (AID 504447). It counts as functional.
Chain of Peroxisome proliferator-activated receptor gamma (P37231 whole entry): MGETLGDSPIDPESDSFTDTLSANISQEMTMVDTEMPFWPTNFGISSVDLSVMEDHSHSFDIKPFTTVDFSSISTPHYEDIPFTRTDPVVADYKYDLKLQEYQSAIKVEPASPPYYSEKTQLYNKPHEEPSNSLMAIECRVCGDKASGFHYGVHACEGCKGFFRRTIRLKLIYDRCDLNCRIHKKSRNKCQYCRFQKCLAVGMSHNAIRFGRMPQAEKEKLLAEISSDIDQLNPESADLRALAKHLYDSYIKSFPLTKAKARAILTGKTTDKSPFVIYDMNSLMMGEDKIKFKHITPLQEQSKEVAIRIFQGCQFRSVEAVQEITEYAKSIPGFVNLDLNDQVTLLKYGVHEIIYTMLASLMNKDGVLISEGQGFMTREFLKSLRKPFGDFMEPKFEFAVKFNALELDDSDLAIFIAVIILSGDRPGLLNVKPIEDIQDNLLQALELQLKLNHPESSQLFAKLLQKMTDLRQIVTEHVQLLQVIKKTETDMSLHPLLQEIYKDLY
Assay [19] deals with Sphingosine 1-phosphate receptor 4 (Homo sapiens, UniProt O95977). Description: Late-stage fluorescence dose response cell-based assay to identify agonists of the Sphingosine 1-Phosphate Receptor 4 (S1P4): purchased compounds EC50. [Related pubchem assays (depositor defined):AID1509, AID1523, AID1563, AID1686, AID1701, AID1801]. It counts as functional.
Chain of Sphingosine 1-phosphate receptor 4 (O95977 whole entry): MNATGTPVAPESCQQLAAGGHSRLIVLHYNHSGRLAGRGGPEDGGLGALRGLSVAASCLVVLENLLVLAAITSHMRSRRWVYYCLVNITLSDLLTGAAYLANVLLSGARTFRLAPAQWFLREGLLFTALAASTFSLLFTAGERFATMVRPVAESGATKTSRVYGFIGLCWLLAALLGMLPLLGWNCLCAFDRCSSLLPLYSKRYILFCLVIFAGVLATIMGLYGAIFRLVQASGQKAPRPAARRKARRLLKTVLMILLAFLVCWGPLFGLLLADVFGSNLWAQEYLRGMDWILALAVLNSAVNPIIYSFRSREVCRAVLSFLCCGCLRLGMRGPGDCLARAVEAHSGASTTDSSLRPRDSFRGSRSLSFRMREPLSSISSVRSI
Assay [20] concerns the target Mu-type opioid receptor (Homo sapiens, UniProt P35372). Briefly: SAR Analysis of Antagonists of the MOR Receptor using an Image-Based Assay - Set 3. [Related pubchem assays (depositor defined):AID1777, AID1785, AID1786, AID1966, AID2133, AID2136, AID2284, AID2285, AID2420]. Type of assay: functional.
Assay [21] addresses Delta-type opioid receptor (Homo sapiens, UniProt P41143). Briefly: SAR Analysis of Antagonists of the DOR Receptor using an Image-Based Assay - Set 3. [Related pubchem assays (depositor defined):AID1777, AID1785]. It counts as functional.
Assay [22] concerns the target T7, Kappa-type opioid receptor (Homo sapiens, UniProt P41145). Briefly: SAR analysis of small molecule antagonists of the kappa opioid receptor via a luminescent beta-arrestin assay - Set 3. [Related pubchem assays (depositor defined):AID1777, AID1778, AID1785, AID1786, AID1966, AID2133, AID2136, AID2285, AID2495]. Type of assay: functional.
Assay [23] addresses T7, Kappa-type opioid receptor. Description: SAR analysis of Antagonists of the Kappa Opioid Receptor (KOR) using an Image-Based Assay - Set 3. [Related pubchem assays (depositor defined):AID1777, AID1785]. It counts as functional.
In assay [24] the target is T8, G-protein coupled receptor 35 (Homo sapiens, UniProt Q9HC97). Briefly: SAR analysis of Agonists of the GPR35 Receptor using an Image-Based Assay - Set 4. [Related pubchem assays (depositor defined):AID2013, AID2026]. It counts as functional.
T8 sequence (Q9HC97 whole entry): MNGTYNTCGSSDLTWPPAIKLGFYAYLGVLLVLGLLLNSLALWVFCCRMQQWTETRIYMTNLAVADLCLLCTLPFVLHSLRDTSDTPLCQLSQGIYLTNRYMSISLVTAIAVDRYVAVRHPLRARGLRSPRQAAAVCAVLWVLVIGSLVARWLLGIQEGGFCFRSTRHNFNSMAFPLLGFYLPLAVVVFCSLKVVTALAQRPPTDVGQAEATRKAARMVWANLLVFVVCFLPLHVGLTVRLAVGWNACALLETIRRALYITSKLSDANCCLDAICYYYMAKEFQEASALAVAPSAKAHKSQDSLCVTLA
Assay [25] concerns the target T9, Cannabinoid receptor 1 (Homo sapiens, UniProt P21554). Description: SAR analysis of agonists of the Cannabinoid Receptor 1 using an Image-Based Assay - Set 4. [Related pubchem assays (depositor defined):AID2013, AID2026]. Type of assay: functional.
Assay [26] has as its target T8, G-protein coupled receptor 35. Briefly: SAR analysis of Antagonists of the GPR35 Receptor using an Image-Based Assay - Set 6. [Related pubchem assays (depositor defined):AID2013, AID2026]. It counts as functional.
Assay [27] concerns the target T9, Cannabinoid receptor 1. Description: SAR analysis of antagonists of the Cannabinoid Receptor 1 using an Image-Based Assay - Set 4. [Related pubchem assays (depositor defined):AID2013, AID2026]. It counts as functional.
Assay [28] has as its target G-protein coupled receptor 55 (Homo sapiens, UniProt Q9Y2T6). Briefly: SAR Analysis of Selective Antagonists of GPR55 using an Image-Based Assay - Set 4. [Related pubchem assays (depositor defined):AID2013, AID2026]. It counts as functional.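 Further: antagonism of response to 5 µM lysophosphatidylinositol agonist.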
Assay [29] addresses T10, Cannabinoid receptor 2 (Homo sapiens, UniProt P34972). Briefly: SAR analysis of antagonists of the Cannabinoid Receptor 2 using an Image-Based Assay - Set 3. [Related pubchem assays (depositor defined):AID2013, AID2026]. It counts as functional.
In assay [30] the target is T10, Cannabinoid receptor 2. Description: SAR analysis of agonists of the Cannabinoid Receptor 2 using an Image-Based Assay - Set 3. [Related pubchem assays (depositor defined):AID2013, AID2026]. It counts as functional.

T1 sequence (Q01196 whole entry, the tested form may be a part): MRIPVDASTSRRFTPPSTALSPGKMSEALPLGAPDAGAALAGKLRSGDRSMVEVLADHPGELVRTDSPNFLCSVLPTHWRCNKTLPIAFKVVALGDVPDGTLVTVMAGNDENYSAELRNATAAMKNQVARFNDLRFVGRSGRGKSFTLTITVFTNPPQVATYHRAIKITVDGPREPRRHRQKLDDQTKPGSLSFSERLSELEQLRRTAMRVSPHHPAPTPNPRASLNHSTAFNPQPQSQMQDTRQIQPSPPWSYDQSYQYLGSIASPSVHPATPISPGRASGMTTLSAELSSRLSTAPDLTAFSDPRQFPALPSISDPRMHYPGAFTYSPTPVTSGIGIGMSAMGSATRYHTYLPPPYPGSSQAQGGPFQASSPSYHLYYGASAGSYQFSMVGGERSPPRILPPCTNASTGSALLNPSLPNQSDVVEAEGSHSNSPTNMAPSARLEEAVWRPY
T1 sequence (Q13951 whole entry, the tested form may be a part): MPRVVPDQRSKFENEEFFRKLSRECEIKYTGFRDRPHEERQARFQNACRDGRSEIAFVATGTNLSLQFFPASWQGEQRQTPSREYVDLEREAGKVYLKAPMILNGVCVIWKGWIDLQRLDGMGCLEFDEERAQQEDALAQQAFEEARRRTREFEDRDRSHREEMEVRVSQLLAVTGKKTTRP
T10 sequence (P34972 whole entry): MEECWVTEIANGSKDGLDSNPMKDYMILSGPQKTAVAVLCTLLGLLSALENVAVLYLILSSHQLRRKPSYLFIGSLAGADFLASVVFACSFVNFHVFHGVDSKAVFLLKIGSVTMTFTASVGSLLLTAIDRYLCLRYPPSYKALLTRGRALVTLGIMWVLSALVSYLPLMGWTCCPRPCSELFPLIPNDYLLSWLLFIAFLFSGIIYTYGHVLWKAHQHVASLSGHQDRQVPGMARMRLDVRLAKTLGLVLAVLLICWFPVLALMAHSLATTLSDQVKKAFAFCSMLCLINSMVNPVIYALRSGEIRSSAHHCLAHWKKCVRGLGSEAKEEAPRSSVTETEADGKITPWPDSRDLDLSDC
T9 sequence (P21554 whole entry): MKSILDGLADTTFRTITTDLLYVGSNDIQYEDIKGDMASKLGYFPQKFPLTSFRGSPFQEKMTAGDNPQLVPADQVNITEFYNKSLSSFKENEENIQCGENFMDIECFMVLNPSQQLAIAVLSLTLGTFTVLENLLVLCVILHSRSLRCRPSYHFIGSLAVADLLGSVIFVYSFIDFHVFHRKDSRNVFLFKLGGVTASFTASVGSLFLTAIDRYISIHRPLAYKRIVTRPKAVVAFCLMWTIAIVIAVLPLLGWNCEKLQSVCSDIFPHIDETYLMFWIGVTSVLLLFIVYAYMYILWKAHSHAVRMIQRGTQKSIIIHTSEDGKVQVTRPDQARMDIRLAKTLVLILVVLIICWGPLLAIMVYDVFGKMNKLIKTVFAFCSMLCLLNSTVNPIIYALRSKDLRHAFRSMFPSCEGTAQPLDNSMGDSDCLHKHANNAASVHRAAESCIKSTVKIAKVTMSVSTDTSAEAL
T7 sequence (P41145 whole entry): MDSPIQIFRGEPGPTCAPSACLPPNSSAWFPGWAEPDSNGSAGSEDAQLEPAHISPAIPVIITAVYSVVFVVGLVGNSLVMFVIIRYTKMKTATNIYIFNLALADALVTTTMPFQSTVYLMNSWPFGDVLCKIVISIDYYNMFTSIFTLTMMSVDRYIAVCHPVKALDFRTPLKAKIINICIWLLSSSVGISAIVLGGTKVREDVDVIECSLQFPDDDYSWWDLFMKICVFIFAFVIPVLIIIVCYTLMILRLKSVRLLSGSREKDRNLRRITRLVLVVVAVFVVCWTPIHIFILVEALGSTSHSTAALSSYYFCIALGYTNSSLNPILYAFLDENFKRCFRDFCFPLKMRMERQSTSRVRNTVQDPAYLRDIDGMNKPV
Chain of Delta-type opioid receptor (P41143 whole entry): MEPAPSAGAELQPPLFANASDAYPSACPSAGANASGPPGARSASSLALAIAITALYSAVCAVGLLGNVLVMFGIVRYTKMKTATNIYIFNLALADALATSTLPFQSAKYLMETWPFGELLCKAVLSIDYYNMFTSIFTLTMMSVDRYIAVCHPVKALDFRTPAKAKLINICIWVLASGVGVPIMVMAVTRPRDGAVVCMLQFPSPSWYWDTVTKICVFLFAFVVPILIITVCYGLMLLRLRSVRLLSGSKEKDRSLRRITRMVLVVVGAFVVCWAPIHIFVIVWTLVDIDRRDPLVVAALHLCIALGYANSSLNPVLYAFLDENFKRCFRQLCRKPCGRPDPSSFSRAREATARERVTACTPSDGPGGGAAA
Chain of Dual specificity protein phosphatase 3 (P51452 whole entry): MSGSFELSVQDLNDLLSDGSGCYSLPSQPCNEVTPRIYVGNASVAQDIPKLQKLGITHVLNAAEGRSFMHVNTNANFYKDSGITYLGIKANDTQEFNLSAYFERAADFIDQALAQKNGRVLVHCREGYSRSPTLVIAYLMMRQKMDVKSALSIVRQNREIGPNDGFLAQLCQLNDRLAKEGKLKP
Chain of G-protein coupled receptor 55 (Q9Y2T6 whole entry): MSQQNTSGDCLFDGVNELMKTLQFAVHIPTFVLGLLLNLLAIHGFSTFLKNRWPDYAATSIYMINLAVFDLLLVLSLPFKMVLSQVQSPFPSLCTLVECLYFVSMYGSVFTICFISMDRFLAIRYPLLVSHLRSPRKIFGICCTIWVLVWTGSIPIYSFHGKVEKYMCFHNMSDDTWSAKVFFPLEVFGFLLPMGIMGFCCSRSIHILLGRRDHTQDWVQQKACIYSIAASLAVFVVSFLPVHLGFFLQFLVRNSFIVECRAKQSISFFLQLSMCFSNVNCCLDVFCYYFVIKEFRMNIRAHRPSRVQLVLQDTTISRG

By IC50 is commonly meant the concentration that inhibits the measured activity by half. Consider `Cc1nc2ccc(S(=O)(=O)Nc3ccc(-c4nc5cccnc5s4)cc3)cc2s1`, for which the IC50 is 0.713 µM (active) in [1], 1.6 µM (active) in assay [2] and > 100 µM (inactive) in [3].
As to `CCOc1ccc(NC(=S)Nc2cc(C)n[nH]2)cc1`, the IC50 is 9.41 µM (active) in assay [4]; > 50 µM (inactive) in [5]; > 100 µM (inactive) in [6]; > 100 µM (inactive) in assay [7]; > 100 µM (inactive) in assay [8].
As for `Cc1cc(C)n2[nH]c(=O)c(N=Nc3cccc(C(F)(F)F)c3)c2n1`, the CC50 in [9] was 26.2 µM (active); in assay [10] it was 20 µM (active). In addition, the half-maximal inhibitory concentration (IC50) in assay [11] was 18.7 µM (active).
By EC50 is commonly meant the concentration at which the effect is half-maximal. Take `CCCN1C(=O)c2cccc3c(N4CCCCC4)ccc(c23)C1=O`: the EC50 in assay [12] is 29.8 µM (active); in [13], 51 µM (inconclusive); in assay [14], > 9.97 µM (inactive); in assay [16], > 9.97 µM (not active). The IC50 in assay [15] and in [17] was > 59.6 µM (inactive) in each case.
Consider `O=C(CSc1nc(=O)n(CCN2CCOCC2)c2c1CCCC2)Nc1cccc([N+](=O)[O-])c1`, for which the EC50 in assay [18] was 0.631 µM (active).
As to `CC(=O)c1ccccc1NC(=O)C(C)OC(=O)c1c(C)nn(Cc2ccccc2)c1Cl` (stereo not given), the EC50 in [19] is > 50 µM (inactive).
As for `Cc1cccc(S(=O)(=O)NCc2ccc(C(=O)NCCN3Cc4ccccc4C3)cc2)c1`, the IC50 in [20] was > 32 µM (inactive); in assay [21] it was > 32 µM (inactive); in assay [22], > 20 µM (inactive); in assay [23], > 32 µM (inactive).
In the case of `O=C(Cc1ccccc1F)N1CCC(n2nc(-c3ccccc3)oc2=O)CC1`, the EC50 in assay [24], in assay [25] and in assay [30] was > 32 µM (inactive) in each case. Further, the IC50 in assay [26] is > 32 µM (inactive); in assay [27], 17.9 µM (inactive); in assay [28], > 32 µM (inactive); in assay [29], > 32 µM (inactive).
